In publication PMC8704315, “Lichen-Derived Compounds and Extracts as Biologically Active Substances with Anticancer and Neuroprotective Properties” (Pharmaceuticals, 2021):
Where two headings read alike, the source gives them in different places.

Legend:
CUPRAC assay = settings: concentration giving absorbance 0.5; highest 250.0 µg/mL for substances, 312.5 µg/mL for extracts; ± SEM, n = 3
[1] = biological target: T1, indoleamine 2,3-dioxygenases 2 (IDO2) (Homo sapiens, UniProt Q6ZQW0); assay: Universal IDO1/IDO2/TDO Inhibitor Screening Assay Kit, IDO2; type: biochemical; settings: for inhibition at 100 µg/mL: read-out: Inhibition (%) IDO2
T1 construct: purchased BPS Bioscience, Inc. (San Diego, CA, USA)
T1 sequence (Q6ZQW0 1-407): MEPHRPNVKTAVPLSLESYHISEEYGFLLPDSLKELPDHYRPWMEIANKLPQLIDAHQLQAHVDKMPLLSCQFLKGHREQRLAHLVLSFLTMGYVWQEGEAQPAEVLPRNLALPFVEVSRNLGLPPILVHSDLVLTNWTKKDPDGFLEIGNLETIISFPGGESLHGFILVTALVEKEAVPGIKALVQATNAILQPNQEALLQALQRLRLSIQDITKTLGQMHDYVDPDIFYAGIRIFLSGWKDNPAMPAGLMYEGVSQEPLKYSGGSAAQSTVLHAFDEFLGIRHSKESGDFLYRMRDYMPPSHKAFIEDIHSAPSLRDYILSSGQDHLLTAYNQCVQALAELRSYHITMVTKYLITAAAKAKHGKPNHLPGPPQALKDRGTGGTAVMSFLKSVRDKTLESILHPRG
Description: This colorimetric assay is based on the measurement of the ability of IDO1, IDO2 and TDO to convert L-tryptophan into N-formylkynurenine (NFK). The experiments were performed according to the manufacturer’s guidelines. The final concentration of the compounds and extracts in the reaction mixture was 100 µg/mL. The amount of NFK was measured spectrophotometrically at 320 nm using an Epoch BioTek microplate reader (BioTek Instruments, Inc., Winooski, VT, USA). The samples were run in triplicate and the results were expressed as mean ± SEM.

[2] = biological target: T2, COX-2 enzyme (Human recombinant) (Homo sapiens, UniProt P35354); assay: COX-2 activity assay (Cayman COX Activity Assay Kit); type: biochemical; settings: for inhibition at 250 µg/mL: read-out: COX-2 Inhibition (%)
T2 construct: purchased Cayman 60122
T2 sequence (P35354 18-604): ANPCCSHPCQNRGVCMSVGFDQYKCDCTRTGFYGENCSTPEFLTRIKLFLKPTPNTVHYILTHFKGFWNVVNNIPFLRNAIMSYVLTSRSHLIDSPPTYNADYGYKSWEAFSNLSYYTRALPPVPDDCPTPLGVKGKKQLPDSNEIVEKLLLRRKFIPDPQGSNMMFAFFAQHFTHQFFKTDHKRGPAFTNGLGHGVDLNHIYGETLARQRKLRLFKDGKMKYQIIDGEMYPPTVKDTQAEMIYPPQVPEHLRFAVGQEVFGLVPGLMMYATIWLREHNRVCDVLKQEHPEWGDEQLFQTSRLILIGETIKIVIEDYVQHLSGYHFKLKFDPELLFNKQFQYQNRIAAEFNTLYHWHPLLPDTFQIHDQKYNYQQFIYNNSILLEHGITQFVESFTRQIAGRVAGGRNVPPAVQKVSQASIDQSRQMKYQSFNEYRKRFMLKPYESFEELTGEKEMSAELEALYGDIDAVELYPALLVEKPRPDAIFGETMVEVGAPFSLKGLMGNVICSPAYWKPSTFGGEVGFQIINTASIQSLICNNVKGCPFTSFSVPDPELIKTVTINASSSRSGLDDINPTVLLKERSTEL
Description: A volume of 0.01 mL of the studied sample, dissolved in pure DMSO to obtain 5 mg/mL, was mixed with 0.12 mL of Tris buffer (100 mM, pH 8.0), 0.01 mL hemin, shaken and left for 5 min at 25 °C followed by addition of 0.02 mL colorimetric substrate and 0.02 mL arachidonic acid solution. To start the reaction, 0.02 mL of COX-2 solution was added. The increase of absorbance during incubation at room temperature was recorded at 590 nm. Negative (blank) sample (buffer instead of studied sample) and positive sample (COX-2 inhibitor DuP-697) were run simultaneously. Background of studied samples (0.01 mL of sample mixed with 0.19 mL buffer) was also measured and included in the calculations. Each sample was run in at least 4 repeats. Inhibition of the enzyme activity was expressed in % (indicates by how many % the activity has been reduced in relation to the negative or blank sample for which the maximum activity was assumed as 100%, under the conditions used in the method). Also, inhibition of enzyme activity was expressed as acetylsalicylic acid equivalent concentration (mg/mL). For this purpose, acetylsalicylic acid solutions were prepared at 14 concentrations (0.2-10.0 mg/mL) and analyzed similarly to tested samples.

[3] = tested on: Superoxide dismutase (SOD); assay: Effect on superoxide dismutase activity; type: biochemical; settings: 537.6 μg/mL reaction mixture, ± SEM, n = 3
Description: Sample (50 µL, 5 mg/mL of pure DMSO) was mixed with 10 μL SOD (0.24 U), 160 μL nitrobluetatrazolium solution (0.0025 M), 205 μLphosphate buffer (0.2 M, pH 7.5), 30 μL xanthine (150 mM in 1 M NaOH) and 0.01 mL xanthine oxidase (0.065 U, Sigma Aldrich X4875). The change in the absorbance at 550 nm was measured in tested samples vs. controls without the studied sample after […] of incubation and the effect on the enzyme was calculated using the equation [74]: (3) Inhibition [%]=100 – 100×(Abs. 30 min – Abs. 0 min)/(Abs. control. 30 min – Abs. control 0 min)

[4] = sample 5 mg/mL stock, 250.0 µg/mL in assay, ± SEM

Structure (SMILES)	CUPRAC IC0.5 (CUPRAC assay)	Inhibition (%) IDO2 ([1]; 100 µg/mL)	inhibition at 100 µg/mL ([1]; 100 µg/mL)	Equivalent Concentration of Acetylsalicylic Acid [2, 4]	inhibition at 250 µg/mL [2, 4]	SOD Inhibition (%) [3]	SOD Inhibition (%) ([3]; listed as salazinic acid)	inhibition at 100 µg/mL [1]	inhibition at 250 µg/mL [2]	SOD Inhibition (%) ([3]; listed as (−)-usnic acid)	SOD Inhibition (%) ([3]; listed as evernic acid)
Cc1cc(O)c(C=O)c2c1C(=O)Oc1c(CO)c(O)c3c(c1O2)C(O)OC3=O (stereo not shown) [Salazinic acid, salazinic acid]	>250.0 µg/mL	did not exhibit any inhibition effect	< 10%	12.9 ± 0.1 mg/mL	60.3 ± 3%	19.4 ± 0.3%	~ 20%	–	–	–	–
CC(=O)C1=C(O)C=C2Oc3c(C(C)=O)c(O)c(C)c(O)c3C2(C)C1=O (single isomer, unassigned; (-)) [(−)-Usnic acid, (−)-usnic acid]	>250.0 µg/mL	–	–	12.9 ± 1.5 mg/mL	–	19.6 ± 0.6%	–	< 10%	59.3 ± 3.5%	~ 20%	–
COc1cc(C)c(C(=O)Oc2cc(C)c(C(=O)O)c(O)c2)c(O)c1 [Evernic acid, evernic acid]	>250.0 µg/mL	–	< 10%	10.9 ± 1.8 mg/mL	50.7 ± 2.1%	21.2 ± 0.0%	–	–	–	–	~ 20%
